# Laboratory results reported in patent US9321773B2, “Compounds” (Respivert Ltd, priority 2009, dated 2016).
# Entries after “also recorded” stand apart in the source; their conditions may differ. Like-named read-outs stand apart in the source and are kept apart here.
# What was measured:
# [1] = test system: cigarette smoke-induced pulmonary macrophage and neutrophil influx; test: Cigarette Smoke Model; format: in vivo, mouse; settings: A/J mice; for anti-inflammatory activity (BALF neutrophils and alveolar macrophages), monotherapy: twice daily for 3 days after final smoke exposure
# Description: A/J mice (males, 5 weeks old) were exposed to cigarette smoke (4% cigarette smoke, diluted with compressed air) for 30 min/day for 11 days using a Tobacco Smoke Inhalation Experiment System for small animals (Model SIS-CS; Sibata Scientific Technology, Tokyo, Japan). Test substances were given intra-nasally (35 μL of solution in 50% DMSO/PBS) and therapeutically twice daily for 3 days after the final cigarette smoke exposure. Twelve hr after the last dosing, animals were anesthetized, the trachea cannulated and bronchoalveolar lavage fluid (BALF) was collected. The numbers of alveolar macrophages and neutrophils were determined by FACS analysis (EPICS® ALTRA II, Beckman Coulter, Inc., Fullerton, Calif., USA) using anti-mouse MOMA2 antibody (macrophage) or anti-mouse 7/4 antibody (neutrophil).
# [2] = test system: PMA-differentiated U937 cells; test: MTT Assay (cell viability); format: cell-based, Human; settings: percentage loss of cell viability; for Cell Viability MTT Assay in D-U937 cells at 4 hr: 4 hr in 5% FCS; for Cell Viability MTT Assay in D-U937 cells at 24 hr: 24 hr in 10% FCS
# Procedure, shortened: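 Differentiated U937 cells treated with compound for 4 hr (5% FCS) or 24 hr (10% FCS), then given MTT for 1 hr; formazan dissolved in DMSO and absorbance read at 550 nm. Viability loss expressed as % versus 0.5% DMSO vehicle.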
# [3] = test system: LPS induced neutrophilia in mouse lung; test: LPS-Induced Neutrophilia in the Mouse; format: in vivo; settings: for % Inhibition of neutrophils in BAL at the dose indicated (mg/mL) (0.05): 0.05 mg/mL intra-tracheal; for % Inhibition of neutrophils in BAL at the dose indicated (mg/mL) (0.05) / % Inhibition of neutrophils in BAL at the dose indicated (mg/mL) (0.2) / % Inhibition of neutrophils in BAL at the dose indicated (mg/mL) (1.0): 2 hr before LPS challenge; for % Reduction of inhibition at 8 hr compared with 2 hr: 0.2 mg/mL dose; for % Reduction of inhibition at 8 hr compared with 2 hr / % Inhibition at 0.2 mg/mL dose at time indicated (hr) (2) / % Inhibition at 0.2 mg/mL dose at time indicated (hr) (8): mouse lung; for % Inhibition of neutrophils in BAL at the dose indicated (mg/mL) (0.2): 0.2 mg/mL intra-tracheal; for % Inhibition at 0.2 mg/mL dose at time indicated (hr) (2): dosed 2 hr before LPS challenge; for % Inhibition at 0.2 mg/mL dose at time indicated (hr) (8): dosed 8 hr before LPS challenge; for % Inhibition of neutrophils in BAL at the dose indicated (mg/mL) (1.0): 1.0 mg/mL intra-tracheal; for inhibition of LPS-induced neutrophilia (neutrophil influx into the lung), in words: intra-tracheal dosing before LPS challenge
# Description: Non-fasted mice were dosed by the intra-tracheal route with either vehicle, or the test substance at the time points (“pre-dose”) indicated with respect to the start of LPS treatment. At T=0, mice were placed into an exposure chamber and exposed to LPS. Eight hr after LPS challenge, animals were anesthetized, the trachea cannulated and BALF extracted by infusing and withdrawing 1 mL of PBS into the lungs via a tracheal catheter. Total and differential white cell counts in the BALF samples were measured using a Neubaur haemocytometer. Cytospin smears of the BALF samples were prepared by centrifugation at 200 rpm for 5 min at RT and stained using a DiffQuik stain system (Dade Behring). Cells were counted using oil immersion microscopy.
# recombinant PI3 kinase γ = recombinant PI3 kinase γ (Homo sapiens (Human), UniProt P48736); test: Enzyme Inhibition Assay (HTRF PI3K enzyme assay, TR-FRET); format: biochemical
# recombinant PI3 kinase γ, sequence (P48736 whole entry, the tested form may be a part): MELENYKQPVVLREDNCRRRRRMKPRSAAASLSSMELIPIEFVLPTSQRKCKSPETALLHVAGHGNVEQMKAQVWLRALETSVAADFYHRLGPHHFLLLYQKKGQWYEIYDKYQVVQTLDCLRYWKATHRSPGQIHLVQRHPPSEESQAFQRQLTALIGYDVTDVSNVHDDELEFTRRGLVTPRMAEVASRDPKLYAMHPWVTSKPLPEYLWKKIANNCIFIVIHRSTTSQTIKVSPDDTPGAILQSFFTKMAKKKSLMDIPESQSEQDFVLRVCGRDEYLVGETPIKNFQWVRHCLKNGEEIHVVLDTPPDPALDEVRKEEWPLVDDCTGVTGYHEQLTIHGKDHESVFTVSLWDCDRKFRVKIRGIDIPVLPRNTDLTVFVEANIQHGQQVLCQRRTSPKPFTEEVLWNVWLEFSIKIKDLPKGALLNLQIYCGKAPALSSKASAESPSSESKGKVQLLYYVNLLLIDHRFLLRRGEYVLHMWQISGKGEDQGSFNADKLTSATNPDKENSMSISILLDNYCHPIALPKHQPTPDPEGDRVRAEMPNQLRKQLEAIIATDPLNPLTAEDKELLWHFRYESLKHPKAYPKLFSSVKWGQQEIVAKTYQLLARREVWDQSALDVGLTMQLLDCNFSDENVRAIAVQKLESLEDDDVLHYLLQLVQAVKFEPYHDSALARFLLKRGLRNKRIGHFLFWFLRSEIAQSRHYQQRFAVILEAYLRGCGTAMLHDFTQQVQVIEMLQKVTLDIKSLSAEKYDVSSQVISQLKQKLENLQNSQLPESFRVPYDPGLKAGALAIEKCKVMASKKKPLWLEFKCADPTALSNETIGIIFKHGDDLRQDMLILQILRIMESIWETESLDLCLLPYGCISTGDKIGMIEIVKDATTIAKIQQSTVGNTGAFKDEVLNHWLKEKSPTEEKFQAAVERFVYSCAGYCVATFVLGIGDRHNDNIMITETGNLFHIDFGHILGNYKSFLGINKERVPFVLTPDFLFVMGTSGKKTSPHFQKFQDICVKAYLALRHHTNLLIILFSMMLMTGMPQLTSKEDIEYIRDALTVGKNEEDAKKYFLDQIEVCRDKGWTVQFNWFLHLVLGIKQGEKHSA
# Procedure, shortened: (§1)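 Recombinant PI3Kα, δ or γ incubated with PIP2 substrate and compound for 2 hr at RT. Stop solution with biotin-PIP3 and GST-GRP1 PH domain/Eu-anti-GST/SA-APC detection mix added, then 15-18 hr at RT. PIP3 formed reduces the TR-FRET signal.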
# [4] = Stereochemical analysis by chiral stationary phase HPLC (atropisomerism); format: physicochemical; settings: chiral stationary phase HPLC (16 different conditions for the examples)
# Description: Each of these mobile phase are compatible with the column packings referred to above, providing sixteen different solvent and stationary phase permutations. Modifiers such as triethylamine (0.1%), formic acid (0.1%) may be added to improve the resolution
# Semi-preparative Chiral Stationary Phase LC-UV was performed on a Gilson preparative modular system using a Daicel Chiralpak AD semi-prep column ([…], 20×250 mm) and a flow rate of 18 mL/min eluting with an isocratic method over 20 min using […] heptane:IPA and 0.1% triethylamine employing an injection volume of 1.0 mL.
# [5] = test system: H2O2 induced pAkt in D-U937 cells; test: PI3Kδ Cell Based Assay (H2O2 induced pAkt); settings: Homo sapiens, dU937
# Procedure, shortened: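 U937 cells differentiated to macrophage-type cells with PMA (100 ng/mL, 48 to 72 hr), then stimulated with H2O2. pAkt and total Akt detected by antibody-based immunoassay. Ratio of pAkt to total Akt signal used; IC50 from concentration-response curves of serially diluted compounds.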
# recombinant PI3 kinase δ = recombinant PI3 kinase δ (Homo sapiens (Human), UniProt O00329); test: Enzyme Inhibition Assay (HTRF PI3K enzyme assay, TR-FRET); format: biochemical
# recombinant PI3 kinase δ, sequence (O00329 whole entry): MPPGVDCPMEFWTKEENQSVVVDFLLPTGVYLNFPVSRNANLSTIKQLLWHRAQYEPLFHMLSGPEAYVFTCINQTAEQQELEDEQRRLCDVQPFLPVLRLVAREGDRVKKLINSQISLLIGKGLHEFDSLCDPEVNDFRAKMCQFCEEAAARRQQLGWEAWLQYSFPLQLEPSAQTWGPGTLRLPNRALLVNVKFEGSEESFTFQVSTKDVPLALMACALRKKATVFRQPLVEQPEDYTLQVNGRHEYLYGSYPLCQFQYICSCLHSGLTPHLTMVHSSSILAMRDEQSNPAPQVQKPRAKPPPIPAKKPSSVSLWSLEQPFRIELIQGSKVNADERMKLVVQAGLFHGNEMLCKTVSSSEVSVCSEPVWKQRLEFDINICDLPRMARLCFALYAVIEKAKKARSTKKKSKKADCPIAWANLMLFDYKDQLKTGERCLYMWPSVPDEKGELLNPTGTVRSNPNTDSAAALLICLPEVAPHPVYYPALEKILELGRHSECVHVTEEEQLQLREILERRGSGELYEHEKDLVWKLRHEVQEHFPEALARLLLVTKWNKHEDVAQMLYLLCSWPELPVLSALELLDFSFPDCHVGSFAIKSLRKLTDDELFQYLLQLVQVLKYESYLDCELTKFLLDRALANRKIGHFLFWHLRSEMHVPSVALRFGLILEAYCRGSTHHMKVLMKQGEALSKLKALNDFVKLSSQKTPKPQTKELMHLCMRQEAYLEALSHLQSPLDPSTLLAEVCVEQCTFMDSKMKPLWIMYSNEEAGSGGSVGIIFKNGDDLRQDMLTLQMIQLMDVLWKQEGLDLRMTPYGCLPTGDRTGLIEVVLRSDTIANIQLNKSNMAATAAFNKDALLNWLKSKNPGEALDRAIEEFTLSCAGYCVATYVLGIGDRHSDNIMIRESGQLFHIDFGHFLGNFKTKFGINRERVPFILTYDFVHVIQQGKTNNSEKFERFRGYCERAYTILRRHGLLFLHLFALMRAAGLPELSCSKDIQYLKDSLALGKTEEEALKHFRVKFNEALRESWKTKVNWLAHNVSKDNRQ
# recombinant PI3 kinase δ, sequence (P27986 whole entry partner): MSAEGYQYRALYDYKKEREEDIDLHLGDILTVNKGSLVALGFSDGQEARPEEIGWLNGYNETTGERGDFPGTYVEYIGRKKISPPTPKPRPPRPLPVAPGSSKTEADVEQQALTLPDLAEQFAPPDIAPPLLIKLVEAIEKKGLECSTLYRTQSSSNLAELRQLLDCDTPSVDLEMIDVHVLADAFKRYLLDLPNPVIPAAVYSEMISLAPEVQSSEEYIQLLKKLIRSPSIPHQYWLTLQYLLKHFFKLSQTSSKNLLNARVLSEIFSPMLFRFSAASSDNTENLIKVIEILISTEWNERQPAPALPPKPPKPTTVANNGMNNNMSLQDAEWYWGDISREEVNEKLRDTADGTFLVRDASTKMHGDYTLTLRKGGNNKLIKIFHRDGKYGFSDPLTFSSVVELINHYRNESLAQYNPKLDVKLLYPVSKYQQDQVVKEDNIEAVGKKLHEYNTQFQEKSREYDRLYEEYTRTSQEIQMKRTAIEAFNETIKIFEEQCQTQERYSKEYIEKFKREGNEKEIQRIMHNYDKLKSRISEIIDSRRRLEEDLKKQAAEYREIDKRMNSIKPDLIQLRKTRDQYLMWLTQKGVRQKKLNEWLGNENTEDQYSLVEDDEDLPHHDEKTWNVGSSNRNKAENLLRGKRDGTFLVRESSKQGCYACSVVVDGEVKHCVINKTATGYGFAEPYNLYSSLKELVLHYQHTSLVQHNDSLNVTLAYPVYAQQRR
# Procedure, shortened: as §1
# recombinant PI3 kinase α = recombinant PI3 kinase α (Homo sapiens (Human), UniProt P42336); test: as above; format: biochemical
# recombinant PI3 kinase α, sequence (P42336 whole entry): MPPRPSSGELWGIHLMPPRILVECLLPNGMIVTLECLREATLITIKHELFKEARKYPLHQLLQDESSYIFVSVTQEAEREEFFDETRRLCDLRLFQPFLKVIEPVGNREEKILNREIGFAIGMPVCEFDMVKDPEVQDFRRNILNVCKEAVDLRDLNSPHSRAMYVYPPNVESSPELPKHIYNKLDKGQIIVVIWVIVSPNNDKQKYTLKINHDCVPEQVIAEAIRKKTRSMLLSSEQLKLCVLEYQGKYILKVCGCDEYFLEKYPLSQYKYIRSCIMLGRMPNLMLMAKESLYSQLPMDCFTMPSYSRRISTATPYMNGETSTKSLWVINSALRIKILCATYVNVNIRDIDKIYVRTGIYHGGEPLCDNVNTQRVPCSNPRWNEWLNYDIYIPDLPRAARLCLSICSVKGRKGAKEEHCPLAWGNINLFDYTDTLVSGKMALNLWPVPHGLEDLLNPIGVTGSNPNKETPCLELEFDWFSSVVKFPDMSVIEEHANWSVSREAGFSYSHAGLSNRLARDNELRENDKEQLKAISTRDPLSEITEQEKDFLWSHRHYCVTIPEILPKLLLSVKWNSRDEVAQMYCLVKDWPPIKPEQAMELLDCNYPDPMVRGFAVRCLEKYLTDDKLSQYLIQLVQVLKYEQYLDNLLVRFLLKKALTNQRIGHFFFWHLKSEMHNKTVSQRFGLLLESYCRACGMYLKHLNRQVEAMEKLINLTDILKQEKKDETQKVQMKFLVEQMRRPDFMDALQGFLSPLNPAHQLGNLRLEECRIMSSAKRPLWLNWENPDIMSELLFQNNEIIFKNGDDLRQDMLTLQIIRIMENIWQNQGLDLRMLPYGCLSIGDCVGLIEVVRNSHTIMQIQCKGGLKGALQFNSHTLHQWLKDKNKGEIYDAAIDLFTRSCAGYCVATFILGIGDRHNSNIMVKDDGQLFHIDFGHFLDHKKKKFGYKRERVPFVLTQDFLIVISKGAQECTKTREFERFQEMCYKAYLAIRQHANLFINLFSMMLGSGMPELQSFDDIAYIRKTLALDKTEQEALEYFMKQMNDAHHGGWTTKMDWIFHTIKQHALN
# recombinant PI3 kinase α, sequence (P27986 whole entry partner): as the sequence (P27986 whole entry partner) above
# Procedure, shortened: as §1
# [6] = activity range, read-out: PI3 Kinase Inhibition IC50 values at stated Isozyme γ
# [7] = read-out: PI3 Kinase Inhibition IC50 values at stated Isozyme (nM) γ
# [8] = activity range, D-U937 cells, read-out: Cellular Activity IC50 values (H2O2 induced pAkt D-U937 Cells)
# [9] = read-out: Cellular Activity IC50 values (H2O2 induced pAkt (nM) D-U937 Cells)
# [10] = activity range, read-out: PI3 Kinase Inhibition IC50 values at stated Isozyme δ
# [11] = read-out: PI3 Kinase Inhibition IC50 values at stated Isozyme (nM) δ
# [12] = activity range, read-out: PI3 Kinase Inhibition IC50 values at stated Isozyme α
# [13] = read-out: PI3 Kinase Inhibition IC50 values at stated Isozyme (nM) α
IC50 (recombinant PI3 kinase γ; [6]) [nM],IC50 (recombinant PI3 kinase γ; [7]) [nM],"IC50 [5, 8] [nM]","IC50 [5, 9] [nM]",IC50 (recombinant PI3 kinase δ; [10]) [nM],IC50 (recombinant PI3 kinase δ; [11]) [nM],IC50 (recombinant PI3 kinase α; [12]) [nM],IC50 (recombinant PI3 kinase α; [13]) [nM],Compound,"anti-inflammatory activity (BALF neutrophils and alveolar macrophages), monotherapy [1]",Cell Viability MTT Assay in D-U937 cells at 4 hr [2],Cell Viability MTT Assay in D-U937 cells at 24 hr [2],% Inhibition of neutrophils in BAL at the dose indicated (mg/mL) (0.05) ([3]; mouse) [%],% Reduction of inhibition at 8 hr compared with 2 hr [3] [%],% Inhibition of neutrophils in BAL at the dose indicated (mg/mL) (0.2) ([3]; mouse) [%],% Inhibition at 0.2 mg/mL dose at time indicated (hr) (2) [3] [%],% Inhibition at 0.2 mg/mL dose at time indicated (hr) (8) [3] [%],% Inhibition of neutrophils in BAL at the dose indicated (mg/mL) (1.0) ([3]; mouse) [%],"inhibition of LPS-induced neutrophilia (neutrophil influx into the lung), in words ([3]; mouse)",also measured
–,–,–,–,–,–,–,–,"C[C@@H]1C[C@H]2[C@@H]3CCC4=CC(=O)C=C[C@]4(C)[C@@]3(F)[C@@H](O)C[C@]2(C)[C@@]1(O)C(=O)CO [dexamethasone, reference compound]",–,–,–,–,–,–,–,–,–,–,"anti-inflammatory activity (BALF neutrophils and alveolar macrophages) ([1]; 0.3-10 mg/kg, p.o.): inactive"
–,–,–,–,–,–,–,–,"CCC(=O)O[C@]1(C(=O)SCF)[C@H](C)C[C@H]2[C@@H]3C[C@H](F)C4=CC(=O)C=C[C@]4(C)[C@@]3(F)[C@@H](O)C[C@@]21C [fluticasone propionate, reference compound]",lacks effect as monotherapy,–,–,–,–,–,–,–,–,–,–
50 to 1000,234,< 10,1.1,< 50,7,50 to 1000,199,"C#Cc1cccc2nc(Cn3nc(-c4cccc(O)c4)c4c(N)ncnc43)n(Cc3ccccc3Cl)c(=O)c12 [Example 1, 2-((4-Amino-3-(3-hydroxyphenyl)-1H-pyrazolo[3,4-d]pyrimidin-1-yl)methyl)-3-(2-chlorobenzyl)-5-ethynylquinazolin-4(3H)-one]",inhibition; also recorded: possesses anti-inflammatory activity,− (− <30%),− (− <30%),–,–,–,–,–,–,Inhibition of LPS-induced neutrophilia,atropisomerism by chiral stationary phase HPLC [4]: no evidence for atropisomerism was observed; anti-inflammatory activity when co-administered with fluticasone propionate ([1]; co-administered with fluticasone propionate at a dose which lacks effect as monotherapy): marked enhancement of anti-inflammatory activity
< 50,16,< 10,0.58,< 50,20,< 50,20,"Nc1ncnc2c1c(-c1ccc(O)cc1)nn2Cc1nc2cccc(C#CCCCC(=O)N3CCOCC3)c2c(=O)n1Cc1ccccc1Cl [Example 5, 2-((4-Amino-3-(4-hydroxyphenyl)-1H-pyrazolo[3,4-d]pyrimidin-1-yl)methyl)-3-(2-chlorobenzyl)-5-(6-morpholino-6-oxohex-1-yn-1-yl)quinazolin-4(3H)-one]",–,− (− <30%),− (− <30%),4.8,44,37.7,37.7,21.2,58.5,dose dependent inhibition,"level of anti-inflammatory activity at the 8 hr time point relative to value 2 hr after drug treatment ([3]; same dose, LPS challenge, mouse): over half of its original value"

Compound,IC50 (recombinant PI3 kinase γ; [6]) [nM],IC50 (recombinant PI3 kinase γ; [7]) [nM],"IC50 [5, 8] [nM]","IC50 [5, 9] [nM]",IC50 (recombinant PI3 kinase δ; [10]) [nM],IC50 (recombinant PI3 kinase δ; [11]) [nM],IC50 (recombinant PI3 kinase α; [12]) [nM],IC50 (recombinant PI3 kinase α; [13]) [nM],"anti-inflammatory activity (BALF neutrophils and alveolar macrophages), monotherapy [1]",Cell Viability MTT Assay in D-U937 cells at 4 hr [2],Cell Viability MTT Assay in D-U937 cells at 24 hr [2],% Inhibition of neutrophils in BAL at the dose indicated (mg/mL) (0.05) ([3]; mouse) [%],% Reduction of inhibition at 8 hr compared with 2 hr [3] [%],% Inhibition of neutrophils in BAL at the dose indicated (mg/mL) (0.2) ([3]; mouse) [%],% Inhibition at 0.2 mg/mL dose at time indicated (hr) (2) [3] [%],% Inhibition at 0.2 mg/mL dose at time indicated (hr) (8) [3] [%],% Inhibition of neutrophils in BAL at the dose indicated (mg/mL) (1.0) ([3]; mouse) [%],"inhibition of LPS-induced neutrophilia (neutrophil influx into the lung), in words ([3]; mouse)",also measured
"Nc1ncnc2c1c(-c1ccc(O)cc1)nn2Cc1nc2cccc(C#CCCCC(=O)O)c2c(=O)n1Cc1ccccc1Cl [Example 4, 6-(2-((4-Amino-3-(4-hydroxyphenyl)-1H-pyrazolo[3,4-d]pyrimidin-1-yl)methyl)-3-(2-chlorobenzyl)-4-oxo-3,4-dihydroquinazolin-5-yl)hex-5-ynoic acid]",< 50,20,–,–,–,–,–,–,–,− (− <30%),− (− <30%),3.2,73,47.2,47.2,12.9,64.6,dose dependent inhibition,–
